The text below walks through data of patent US11279687B2, “Compounds and compositions for the inhibition of NAMPT” (Valo Health, Inc., priority 2010, dated 2022).

Some results are limits rather than exact numbers.

The target of one assay is NAMPT (Homo sapiens (Human), UniProt P43490). Briefly: NAMPT biochemical inhibition assay (NMN quantified by mass spectrometry). The settings on record: NAMPT biochemical inhibition; read-out: Biochem IC50.
A further assay has as its system A2780 cells. Briefly: In-vitro cell proliferation assay (SRB), A2780 cells.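 Further: viable cell number read as SRB absorbance, background from media-only wells subtracted, IC50 interpolated from percent inhibition at two bracketing compound concentrations.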 Format: cell-based. The settings on record: Homo sapiens, A2780, 72 h, A2780 cells, 72 hours, SRB; read-out: A2780 IC50.

Broadly, the IC50 is the midpoint of a concentration-inhibition curve.

NAMPT, sequence (P43490 whole entry): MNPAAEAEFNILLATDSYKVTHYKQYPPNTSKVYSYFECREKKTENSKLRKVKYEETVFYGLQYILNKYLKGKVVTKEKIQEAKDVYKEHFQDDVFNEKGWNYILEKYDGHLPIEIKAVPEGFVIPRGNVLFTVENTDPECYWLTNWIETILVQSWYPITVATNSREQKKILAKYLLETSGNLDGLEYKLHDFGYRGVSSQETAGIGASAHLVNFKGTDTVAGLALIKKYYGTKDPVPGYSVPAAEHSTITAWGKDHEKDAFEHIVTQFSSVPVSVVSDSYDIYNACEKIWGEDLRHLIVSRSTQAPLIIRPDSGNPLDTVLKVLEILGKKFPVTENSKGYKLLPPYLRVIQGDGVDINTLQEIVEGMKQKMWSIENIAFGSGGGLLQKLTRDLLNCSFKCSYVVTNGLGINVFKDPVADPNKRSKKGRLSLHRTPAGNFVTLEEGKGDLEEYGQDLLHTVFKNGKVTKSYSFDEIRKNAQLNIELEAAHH

For the molecule `O=C(NCc1ccc(C(F)(F)F)nc1)Nc1ccc(S(=O)(=O)N2CCCCC2)cc1` [3-[4-(piperidine-1-sulfonyl)phenyl]-1-{[6-(trifluoromethyl)pyridin-3-yl]methyl]urea], the IC50 is 189 nM at NAMPT and above 30000 nM with A2780 cells.

Regarding `C[C@H](O)COc1ccccc1NS(=O)(=O)c1ccc(NC(=O)NCc2cccnc2)cc1` [3-[4-({2-[(2S)-2-hydroxypropoxy]phenyl}sulfamoyl)phenyl]-1-(pyridin-3-ylmethyl)urea], the values for the IC50 at NAMPT and in the assay on A2780 cells were 12 nM and 88 nM, respectively.

For the molecule `C[C@H](O)c1cccc(NS(=O)(=O)c2ccc(NC(=O)NCc3cccnc3)cc2)c1` [3-[4-({3-[(1S)-1-hydroxyethyl]phenyl}sulfamoyl)phenyl]-1-(pyridin-3-ylmethyl)urea], the IC50 at NAMPT came out at 7 nM; with A2780 cells it was 164 nM.

For the molecule `CN(C)c1ccc(CNS(=O)(=O)c2ccc(NC(=O)NCc3cccnc3)cc2)cc1` [3-[4-({[4-(dimethylamino)phenyl]methyl}sulfamoyl)phenyl]-1-(pyridin-3-ylmethyl)urea], the IC50 was determined as 3 nM on NAMPT and 148 nM with A2780 cells.

For `NC(=O)c1cccc(S(=O)(=O)c2ccc(NC(=O)NCc3cccnc3)cc2)c1` [3-[(4-{[(pyridin-3-ylmethyl)carbamoyl]amino[benzene)sulfonyl]benzamide], the half-inhibitory concentration (IC50) on NAMPT was 8 nM; in the assay with A2780 cells it was 1000 to 10000 nM.

Regarding `O=C(NCc1cncc(Cl)c1)Nc1ccc(S(=O)(=O)N2CCCCC2)cc1` [3-[(5-chloropyridin-3-yl)methyl]-1-[4-(piperidine-1-sulfonyl)phenyl]urea], the IC50 came out at 48 nM at NAMPT and 18000 nM in the assay with A2780 cells.

`Nc1ccc(CNC(=O)Nc2ccc(S(=O)(=O)N3CCCCC3)cc2)cn1` [3-[(6-aminopyridin-3-yl)methyl]-1-[4-(piperidine-1-sulfonyl)phenyl]urea]: the IC50 on NAMPT was 8.5 nM; in the assay on A2780 cells it was 71.4 nM.

Take `O=C(NCc1ccc(Cl)nc1)Nc1ccc(S(=O)(=O)N2CCCCC2)cc1` [3-[(6-chloropyridin-3-yl)methyl]-1-[4-(piperidine-1-sulfonyl)phenyl]urea]: the IC50 at NAMPT is 8 nM; with A2780 cells it was above 30000 nM.

In the case of `CCN(CC)C(=O)c1cc(Cl)cc(S(=O)(=O)c2ccc(NC(=O)NCc3cccnc3)cc2)c1` [3-chloro-N,N-diethyl-5-[(4-{[(pyridin-3-ylmethyl)carbamoyl]amino}benzene)sulfonyl]benzamide], the IC50 on NAMPT is 3.5 nM; in the assay with A2780 cells, 1.7 nM.

As for `CN(C)C(=O)c1cc(F)cc(S(=O)(=O)c2ccc(NC(=O)NCc3cccnc3)cc2)c1` [3-fluoro-N,N-dimethyl-5-[(4-{[(pyridin-3-ylmethyl)carbamoyl]amino}benzene)sulfonyl]benzamide], the figures for the IC50 at NAMPT and in the assay on A2780 cells were 1.5 nM and 13.3 nM, respectively.

Take `CN(C)c1ncc(S(=O)(=O)c2ccc(NC(=O)NCc3cccnc3)cc2)cn1` [3-{4-[2-(dimethylamino)pyrimidine-5-sulfonyl]phenyl}-1-(pyridin-3-ylmethyl)urea]: the half-inhibitory concentration (IC50) at NAMPT was 5.9 nM; in the assay with A2780 cells it was 100 to 1000 nM.

With `CC(C)c1ccc(S(=O)(=O)c2ccc(NC(=O)NCc3cccnc3)cc2)c(Cl)n1` [3-{4-[2-chloro-6-(propan-2-yl)pyridine-3-sulfonyl]phenyl}-1-(pyridin-3-ylmethyl)urea], the IC50 on NAMPT was 3 nM; in the assay with A2780 cells it was 6 nM.

Turning to `COCCC1CCCN(S(=O)(=O)c2ccc(NC(=O)NCc3cccnc3)cc2)C1` (stereo not shown) [3-{4-[3-(2-methoxyethyl)piperidine-1-sulfonyl]phenyl}-1-(pyridin-3-ylmethyl)urea], the IC50 at NAMPT is 4 nM; with A2780 cells, 89 nM.

Take `O=C(NCc1cccnc1)Nc1ccc(S(=O)(=O)c2ccnc(N3CCOCC3)c2Cl)cc1` [3-{4-[3-chloro-2-(morpholin-4-yl)pyridine-4-sulfonyl]phenyl}-1-(pyridin-3-ylmethyl)urea]: the IC50 amounted to 4 nM at NAMPT and 14.2 nM in the assay with A2780 cells.

Take `Cc1ccc(C)c(N2CCN(S(=O)(=O)c3ccc(NC(=O)NCc4cccnc4)cc3)CC2)c1` [3-{4-[4-(2,5-dimethylphenyl)piperazine-1-sulfonyl]phenyl}-1-(pyridin-3-ylmethyl)urea]: the IC50 on NAMPT was 5 nM; in the assay on A2780 cells, 101 nM.

In the case of `CCOc1ccccc1N1CCN(S(=O)(=O)c2ccc(NC(=O)NCc3cccnc3)cc2)CC1` [3-{4-[4-(2-ethoxyphenyl)piperazine-1-sulfonyl]phenyl]-1-(pyridin-3-ylmethyl)urea], the values for the IC50 on NAMPT and in the assay with A2780 cells were 2 nM and 6 nM, respectively.

For the molecule `COc1ccccc1N1CCN(S(=O)(=O)c2ccc(NC(=O)NCc3cccnc3)cc2)CC1` [3-{4-[4-(2-methoxyphenyl)piperazine-1-sulfonyl]phenyl}-1-(pyridin-3-ylmethyl)urea], the IC50 at NAMPT was found to be 7 nM; with A2780 cells, 35 nM.

In the case of `Cc1ccccc1N1CCN(S(=O)(=O)c2ccc(NC(=O)NCc3cccnc3)cc2)CC1` [3-{4-[4-(2-methylphenyl)piperazine-1-sulfonyl]phenyl}-1-(pyridin-3-ylmethyl)urea], the IC50 on NAMPT worked out at 6 nM; in the assay on A2780 cells it was 106 nM.

Consider `O=C(NCc1cccnc1)Nc1ccc(S(=O)(=O)N2CCN(c3c(Cl)cncc3Cl)CC2)cc1` [3-{4-[4-(3,5-dichloropyridin-4-yl)piperazine-1-sulfonyl]phenyl}-1-(pyridin-3-ylmethyl)urea], for which the IC50 worked out at 3 nM at NAMPT and 29 nM in the assay with A2780 cells.

Regarding `O=C(NCc1cccnc1)Nc1ccc(S(=O)(=O)N2CCC(O)(c3cccc(Cl)c3)CC2)cc1` [3-{4-[4-(3-chlorophenyl)-4-hydroxypiperidine-1-sulfonyl]phenyl}-1-(pyridin-3-ylmethyl)urea], the figures for the IC50 at NAMPT and with A2780 cells were 5.2 nM and 956 nM, respectively.

`O=C(NCc1cccnc1)Nc1ccc(S(=O)(=O)N2CCN(c3ncccc3Cl)CC2)cc1` [3-{4-[4-(3-chloropyridin-2-yl)piperazine-1-sulfonyl]phenyl}-1-(pyridin-3-ylmethyl)urea]: the IC50 at NAMPT amounted to 1 nM; with A2780 cells, 18 nM.

On to `COc1ccc(Cl)cc1N1CCN(S(=O)(=O)c2ccc(NC(=O)NCc3cccnc3)cc2)CC1` [3-{4-[4-(5-chloro-2-methoxyphenyl)piperazine-1-sulfonyl]phenyl}-1-(pyridin-3-ylmethyl)urea], for which the IC50 on NAMPT was 2 nM; with A2780 cells it was 50 nM.

`Cc1ccc(Cl)cc1N1CCN(S(=O)(=O)c2ccc(NC(=O)NCc3cccnc3)cc2)CC1` [3-{4-[4-(5-chloro-2-methylphenyl)piperazine-1-sulfonyl]phenyl}-1-(pyridin-3-ylmethyl)urea]: the IC50 at NAMPT was 2 nM; in the assay on A2780 cells it was 162 nM.

For the molecule `CCN(CC)C1CCN(S(=O)(=O)c2ccc(NC(=O)NCc3cccnc3)cc2)CC1` [3-{4-[4-(diethylamino)piperidine-1-sulfonyl]phenyl}-1-(pyridin-3-ylmethyl)urea], the figures for the IC50 on NAMPT and in the assay with A2780 cells were 5 nM and 14 nM, respectively.

On to `CCCN(CCC)C1CCN(S(=O)(=O)c2ccc(NC(=O)NCc3cccnc3)cc2)CC1` [3-{4-[4-(dipropylamino)piperidine-1-sulfonyl]phenyl}-1-(pyridin-3-ylmethyl)urea], for which the IC50 was determined as 4 nM at NAMPT and 3 nM with A2780 cells.

In the case of `COCC1CCN(S(=O)(=O)c2ccc(NC(=O)NCc3cccnc3)cc2)CC1` [3-{4-[4-(methoxymethyl)piperidine-1-sulfonyl]phenyl}-1-(pyridin-3-ylmethyl)urea], the IC50 at NAMPT is 22 nM; with A2780 cells it was 130 nM.
